# Data reported in patent publication US9315503B2, “Kinase inhibitors” (CHIESI FARMACEUTICI S.p.A., priority 2011, dated 2016).
# Counter-ions that a name gives are not always drawn.
# What was measured:
# [1] = test system: LPS-stimulated TNFα release from PBMCs; assay: LPS-stimulated PBMC TNFα release assay; format: cell-based; conditions: inhibition of TNFα release, human PBMCs, LPS 10 ng/ml, 18 h, ELISA, read-out: p38α inhibition (IC50 values)
# Protocol: LPS-Stimulated PBMC TNFα Release Assay.
# Peripheral Blood Mononuclear Cells (PBMCs) were isolated from healthy human volunteer blood using a standard density gradient centrifugation technique. Citrated blood was placed onto Histopaque™ and centrifuged. The PBMCs were removed from the density gradient interface and washed in phosphate buffered saline (PBS). The PBMCs were suspended in RPMI 1640 medium (without serum), dispensed into a 96-well plate and incubated at 37° C. for 3 h in a humidified incubator. After incubation, the medium was replaced (with medium containing 1% foetal bovine serum) and the plate incubated at 37° C., for 1 h, in the presence of test compound or the appropriate vehicle. LPS (10 ng/ml), or an appropriate vehicle control, was then added to the cells and the plate returned to the incubator for 18 h. Cell-free supernatants were removed and assayed for TNFα levels using an ELISA kit from R&D Systems.
# A dose response curve to each test compound was performed and the effect of compound in each experiment was expressed as a percentage inhibition of the control TNFα release. Dose response curves were plotted and compound potency (IC50) was determined. Compounds were tested in at least three separate experiments.
# [2] = target: T1, p38alpha (Homo sapiens, UniProt Q16539); assay: P38Alpha enzyme inhibition assay (Alphascreen kinase activity assay); format: biochemical; conditions: 100 pM p38alpha, 250 μM ATP, 2 hours pre-incubation at 25° C., read-out: p38α inhibition (IC50 values)
# T1 construct: purchased Invitrogen PV3304
# T1 sequence (Q16539 whole entry): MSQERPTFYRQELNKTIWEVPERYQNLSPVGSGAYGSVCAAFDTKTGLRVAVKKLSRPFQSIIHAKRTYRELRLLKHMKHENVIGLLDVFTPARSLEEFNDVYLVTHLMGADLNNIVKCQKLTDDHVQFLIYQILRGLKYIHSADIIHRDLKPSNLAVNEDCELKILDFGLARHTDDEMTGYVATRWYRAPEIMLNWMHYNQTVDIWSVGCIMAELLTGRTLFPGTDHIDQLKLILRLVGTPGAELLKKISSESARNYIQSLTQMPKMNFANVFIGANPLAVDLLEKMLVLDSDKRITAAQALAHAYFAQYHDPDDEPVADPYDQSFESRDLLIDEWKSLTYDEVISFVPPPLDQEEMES
# Protocol: P38Alpha Enzyme Inhibition Assay.
# The inhibitory activity of compounds was determined using an Alphascreen® (Perkin Elmer) based kinase activity assay. Kinase reactions consisted of 25 mM HEPES pH 7.5, 10 mM MgCl2, 100 μM Na3VO4, 2 mM DTT, 0.05 mg/ml Tween 20, 100 pM p38alpha (Invitrogen, PV3304), 1% DMSO and 0.3 μg/ml ATF-2 fusion protein (New England Biolabs, 9224). Compounds were incubated under these conditions for 2 hours, at 25° C., prior to the initiation of the kinase activity by the addition of the 250 μM ATP. Reaction volumes were 20 uL. After 1 hr at 25° C. reactions were stopped by the adding 10 uL of 25 mM HEPES pH 7.5 containing 62.5 mM EDTA, 0.05% Triton X-100, 10% BSA and 0.83 ng/uL anti-phospho-ATF2 antibody (Abeam, ab28812). Detection was performed by measuring luminescence following the addition of Alphascreen Donor beads (Perkin Elmer 6765300) and Protein A Alphascreen Acceptor beads (Perkin Elmer 6760137), both at a final concentration of 20 ug/ml. IC50 values were determined from concentration-response curves.
SMILES,IC50 [1] [nM],IC50 [2] [nM]
"Cc1ccc(-n2nc(C(C)(C)C)cc2NC(=O)N[C@H]2CC[C@@H](Oc3ccc4nnc(CCN5CCCC5)n4c3)c3ccccc32)cc1 [Example 1, 1-(5-tert-Butyl-2-p-tolyl-2H-pyrazol-3-yl)-3-{(1S,4R)-4-[3-(2-pyrrolidin-1-yl-ethyl)-[1,2,4]triazolo[4,3-a]pyridin-6-yloxy]-1,2,3,4-tetrahydro-naphthalen-1-yl}-urea]",10 to 100,< 10
"Cc1ccc(-n2nc(C(C)(C)C)cc2NC(=O)N[C@H]2CC[C@@H](Oc3ccc4nnc(CCN5CCN(C)CC5)n4c3)c3ccccc32)cc1 [Example 2, 1-(5-tert-Butyl-2-p-tolyl-2H-pyrazol-3-yl)-3-((1S,4R)-4-{3-[2-(4-methyl-piperazin-1-yl)-ethyl]-[1,2,4]triazolo[4,3-a]pyridin-6-yloxy}-1,2,3,4-tetrahydro-naphthalen-1-yl)-urea formate salt]",10 to 100,< 10
Cc1ccc(-n2nc(C(C)(C)C)cc2NC(=O)N[C@H]2CC[C@@H](Oc3ccc4nnc(N5CCCCC5)n4c3)c3ccccc32)cc1 [Example 3],< 10,< 10
"Cc1ccc(-n2nc(C(C)(C)C)cc2NC(=O)N[C@H]2CC[C@@H](Oc3ccc4nnc(CN5CCNCC5)n4c3)c3ccccc32)cc1 [Example 7, 1-(5-tert-Butyl-2-p-tolyl-2H-pyrazol-3-yl)-3-[(1S,4R)-4-(3-piperazin-1-ylmethyl-[1,2,4]triazolo[4,3-a]pyridin-6-yloxy)-1,2,3,4-tetrahydro-naphthalen-1-yl]-urea]",100 to 1000,< 10
"Cc1ccc(-n2nc(C(C)(C)C)cc2NC(=O)N[C@H]2CC[C@@H](Oc3ccc4nnc(CN5CCN(C)CC5)n4c3)c3ccccc32)cc1 [Example 14, 1-(5-tert-Butyl-2-p-tolyl-2H-pyrazol-3-yl)-3-{(1S,4R)-4-[3-(4-methyl-piperazin-1-ylmethyl)-[1,2,4]triazolo[4,3-a]pyridin-6-yloxy]-1,2,3,4-tetrahydro-naphthalen-1-yl}-urea formate salt]",10 to 100,
"Cc1ccc(-n2nc(C(C)(C)C)cc2NC(=O)N[C@H]2CC[C@@H](Oc3ccc4nnc(CN5CCOCC5)n4c3)c3ccccc32)cc1 [Example 15, 1-(5-tert-Butyl-2-p-tolyl-2H-pyrazol-3-yl)-3-[(1S,4R)-4-(3-morpholin-4-ylmethyl-[1,2,4]triazolo[4,3-a]pyridin-6-yloxy)-1,2,3,4-tetrahydro-naphthalen-1-yl]-urea formate salt]",< 10,
"Cc1ccc(-n2nc(C(C)(C)C)cc2NC(=O)N[C@H]2CC[C@@H](Oc3ccc4nnc(CN5CCCC5)n4c3)c3ccccc32)cc1 [Example 16, 1-(5-tert-Butyl-2-p-tolyl-2H-pyrazol-3-yl)-3-[(1S,4R)-4-(3-pyrrolidin-1-ylmethyl-[1,2,4]triazolo[4,3-a]pyridin-6-yloxy)-1,2,3,4-tetrahydro-naphthalen-1-yl]-urea]",< 10,
"C[C@@H]1CCC[C@H](C)N1c1nnc2ccc(O[C@@H]3CC[C@H](NC(=O)NC4CC4)c4ccccc43)cn12 [Example 117, 1-Cyclopropyl-3-{(1S,4R)-4-[3-((2S,6R)-2,6-dimethyl-piperidin-1-yl)-[1,2,4]triazolo[4,3-a]pyridin-6-yloxy]-1,2,3,4-tetrahydro-naphthalen-1-yl}-urea formate salt]",< 10,
"C[C@H]1CCCCN1c1nnc2ccc(O[C@@H]3CC[C@H](NC(=O)Nc4cc(C(C)(C)C)nn4-c4cccc(CN5CCCC5)c4)c4ccccc43)cn12 [Example 171, 1-[5-tert-Butyl-2-(3-pyrrolidin-1-ylmethyl-phenyl)-2H-pyrazol-3-yl]-3-{(1S,4R)-4-[3-((S)-2-methyl-piperidin-1-yl)-[1,2,4]triazolo[4,3-a]pyridin-6-yloxy]-1,2,3,4-tetrahydro-naphthalen-1-yl}-urea formate salt]",,< 10
"C[C@H]1CCCCN1c1nnc2ccc(O[C@@H]3CC[C@H](NC(=O)Nc4cc(C(C)(C)C)nn4-c4ccc(CN5CCOCC5)cc4)c4ccccc43)cn12 [Example 176, 1-[5-tert-Butyl-2-(4-morpholin-4-ylmethyl-phenyl)-2H-pyrazol-3-yl]-3-{(1S,4R)-4-[3-((S)-2-methyl-piperidin-1-yl)-[1,2,4]triazolo[4,3-a]pyridin-6-yloxy]-1,2,3,4-tetrahydro-naphthalen-1-yl}-urea]",,< 10
"C[C@H]1CCCCN1c1nnc2ccc(O[C@@H]3CC[C@H](NC(=O)Nc4cc(C(C)(C)C)nn4-c4ccc(CN5CCN(C)CC5)cc4)c4ccccc43)cn12 [Example 178, 1-{5-tert-Butyl-2-[4-(4-methyl-piperazin-1-ylmethyl)-phenyl]-2H-pyrazol-3-yl}-3-{(1S,4R)-4-[3-((S)-2-methyl-piperidin-1-yl)-[1,2,4]triazolo[4,3-a]pyridin-6-yloxy]-1,2,3,4-tetrahydro-naphthalen-1-yl}-urea partial formate salt]",,< 10
"C[C@H]1CCCCN1c1nnc2ccc(O[C@@H]3CC[C@H](NC(=O)Nc4cc(C(C)(C)C)nn4-c4ccc(CN5CCCC5)cc4)c4ccccc43)cn12 [Example 181, 1-[5-tert-Butyl-2-(4-pyrrolidin-1-ylmethyl-phenyl)-2H-pyrazol-3-yl]-3-{(1S,4R)-4-[3-((S)-2-methyl-piperidin-1-yl)-[1,2,4]triazolo[4,3-a]pyridin-6-yloxy]-1,2,3,4-tetrahydro-naphthalen-1-yl}-urea formate salt]",,< 10
"C[C@H]1CCCCN1c1nnc2ccc(O[C@@H]3CC[C@H](NC(=O)Nc4cc(C(C)(C)C)nn4-c4ccc(CN5CCCCC5)cc4)c4ccccc43)cn12 [Example 182, 1-[5-tert-Butyl-2-(4-piperidin-1-ylmethyl-phenyl)-2H-pyrazol-3-yl]-3-{(1S,4R)-4-[3-((S)-2-methyl-piperidin-1-yl)-[1,2,4]triazolo[4,3-a]pyridin-6-yloxy]-1,2,3,4-tetrahydro-naphthalen-1-yl}-urea formate salt]",,< 10
"C[C@H]1CCCCN1c1nnc2ccc(O[C@@H]3CC[C@H](NC(=O)Nc4cc(C(C)(C)C)nn4-c4ccc(CN5CCC(F)CC5)cc4)c4ccccc43)cn12 [Example 183, 1-{5-tert-Butyl-2-[4-(4-fluoro-piperidin-1-ylmethyl)-phenyl]-2H-pyrazol-3-yl}-3-{(1S,4R)-4-[3-((S)-2-methyl-piperidin-1-yl)-[1,2,4]triazolo[4,3-a]pyridin-6-yloxy]-1,2,3,4-tetrahydro-naphthalen-1-yl}-urea formate salt]",,< 10
"CCN(C)Cc1ccc(-n2nc(C(C)(C)C)cc2NC(=O)N[C@H]2CC[C@@H](Oc3ccc4nnc(N5CCCC[C@@H]5C)n4c3)c3ccccc32)cc1 [Example 184, 1-(5-tert-Butyl-2-{4-[(ethyl-methyl-amino)-methyl]-phenyl}-2H-pyrazol-3-yl)-3-{(1S,4R)-4-[3-((S)-2-methyl-piperidin-1-yl)-[1,2,4]triazolo[4,3-a]pyridin-6-yloxy]-1,2,3,4-tetrahydro-naphthalen-1-yl}-urea formate salt]",,< 10
"COCCN(C)Cc1ccc(-n2nc(C(C)(C)C)cc2NC(=O)N[C@H]2CC[C@@H](Oc3ccc4nnc(N5CCCC[C@@H]5C)n4c3)c3ccccc32)cc1 [Example 185, 1-[5-tert-Butyl-2-(4-{[(2-methoxy-ethyl)-methyl-amino]-methyl}-phenyl)-2H-pyrazol-3-yl]-3-{(1S,4R)-4-[3-((S)-2-methyl-piperidin-1-yl)-[1,2,4]triazolo[4,3-a]pyridin-6-yloxy]-1,2,3,4-tetrahydro-naphthalen-1-yl}-urea formate salt]",,< 10
